This note sets out measurements from publication PMC6776562, “Inhibition of Rac1-dependent forgetting alleviates memory deficits in animal models of Alzheimer’s disease” (Protein & Cell, 2019).

The test system of experiment [1] is Cdc42. In words: Cdc42 activity (Cdc42-GTP) by Western blot after drug administration. Particulars: 7-month-old APP/PS1 mice; two weeks of P.O administration. Format: in vivo. How it is done:
The hippocampal tissues from human subjects and mice were harvested and stored in a liquid nitrogen tank for biochemical assay. The tissues were homogenized in cold lysis buffer (Merck-Millipore, 20-168). The insoluble debris were removed after centrifugation at 13,000 rpm (for 10 min, at 4 °C). For GTP-bound Rac/Cdc42, lysates were incubated with GST-tagged PAK (p21-activated kinase)-PBD agarose beads (Cytoskeleton, PAK02) overnight at 4 °C. On the second day, the beads were washed three times with lysis buffer before subjecting them to SDS-PAGE (15%) and transferring them onto nitrocellulose membranes (Millipore, HATF00010). The membranes were incubated with primary antibodies (for Rac1: BD Transduction Laboratories, #610650, 1:2,000 dilution; for Cdc42, Santa Cruz Biotechnology, lot No. sc-8401, 1:500 dilution) overnight at 4 °C and with HRP-conjugated goat anti-mouse IgG (Cell Signaling Technology, #7076) for 1 h at room temperature. Intensities of the detected bands were analyzed using ImageJ software (National Institutes of Health). The total amount of Rac1 in the lysate was detected using a routine Western blot procedure. RhoA-GTP levels were measured by using the Rho-GTP monoclonal antibody (New East, lot No. 26904, Dilution: 1:1,000). […] Data information: All values are expressed as mean r SEM.
(In western blotting, separated proteins are transferred to a membrane and probed.)

The target of experiment [2] is Rac1 (Mus musculus, UniProt P63001). In words: Rac1 activity (Rac1-GTP/total Rac1) in hippocampal tissue by PAK-PBD pull-down and Western blot after drug administration. It is filed as in vivo, APP/PS1 mice. Particulars: APP/PS1 mice (eight-month-old); oral CS7171 50 mg/kg, CS7170 50 mg/kg, JKF-034 40 mg/kg once per day. How it is done: We first assayed Rac1 activity in hippocampal tissues from AD patients and healthy age-matched, non-demented controls (Detailed information is provided in Table 1). The levels of the guanosine triphosphate (GTP)-bound active form of Rac1 were measured using the p21-binding domain (PBD) pull-down assay. The GTP-bound active form of Rac1 was pulled down through the interactive p21-activated kinase (PAK) fragment using PAK-PBD beads and measured using a Western blot assay (Fig. 1A), as described in previous studies (Shuai et al., [2010]; Liu et al., [2016]) from our laboratory and studies conducted by other research groups (Sander et al., [1998]; Barnes et al., [2008]). The total amount of Rac1 and actin were also evaluated using the Western blot analyses (See MATERIALS AND METHODS). […] Since there were no significant differences in total Rac1 levels between the experimental and control groups (See representative Western blot in all relevant figures), the ratio of Rac1-GTP to total Rac1 was taken as a measure of Rac1 activity. […] Consistent with this observation, Rac1 activity was also elevated in the hippocampus of APP/PS1 mice at different age (Fig. 1D). […] This increase was more pronounced in older flies (Fig. S1F).
Mice were treated with EHop-016 (10 mg/kg), CS7170 (50 mg/kg), CS7171 (50 mg/kg), and JKF-034 (40 mg/kg). These drugs were dissolved in saline (0.9% NaCl) containing 0.5% Tween-80 (Sigma P4780). Each mouse received 200 μL of the solution by intragastric administration once per day (administered at 9:00 am). The drug administration was started seven days before the beginning of the Morris water maze (MWM) task and was continued until the end of the assay. All control groups were fed with vehicle solution.
The hippocampal tissues from human subjects and mice were harvested and stored in a liquid nitrogen tank for biochemical assay. The tissues were homogenized in cold lysis buffer (Merck-Millipore, 20-168). The insoluble debris were removed after centrifugation at 13,000 rpm (for 10 min, at 4 °C). For GTP-bound Rac/Cdc42, lysates were incubated with GST-tagged PAK (p21-activated kinase)-PBD agarose beads (Cytoskeleton, PAK02) overnight at 4 °C. On the second day, the beads were washed three times with lysis buffer before subjecting them to SDS-PAGE (15%) and transferring them onto nitrocellulose membranes (Millipore, HATF00010). The membranes were incubated with primary antibodies (for Rac1: BD Transduction Laboratories, #610650, 1:2,000 dilution; for Cdc42, Santa Cruz Biotechnology, lot No. sc-8401, 1:500 dilution) overnight at 4 °C and with HRP-conjugated goat anti-mouse IgG (Cell Signaling Technology, #7076) for 1 h at room temperature. Intensities of the detected bands were analyzed using ImageJ software (National Institutes of Health). The total amount of Rac1 in the lysate was detected using a routine Western blot procedure. RhoA-GTP levels were measured by using the Rho-GTP monoclonal antibody (New East, lot No. 26904, Dilution: 1:1,000). Information regarding the other antibodies used is as follows: anti-RhoA (67B9), Cell Signaling, lot No. #2117, dilution: 1:1,000; anti-Actin, Clone C4, Millipore, lot No. #3018859, dilution: 1:2,000; anti-Amyloid 1-42 6E10, BioLegend, lot No. 803001, dilution: 1:1,000; anti-Phospho-PAK1 (Ser144)/PAK2 (Ser141), Cell Signaling, lot No. #2606, dilution: 1:1,000.

Regarding `O=C1NN(c2ccc(Cl)c(Cl)c2)C(=O)C1=Cc1ccc(O)c(N(O)O)c1` [CS7171], the Cdc42 activity result in experiment [1] is reported as “did not affect”. Moreover, the “hippocampal Rac1 activity (Rac1-GTP/total Rac1)” value in experiment [2] is “inhibited hippocampal Rac1 activity”.

Consider `O=S(=O)(c1ccccc1)N1CCN(Cc2ccccc2)CC1` [JKF-034], for which the Cdc42 activity result in experiment [1] is recorded as “did not affect”. For the same molecule, in experiment [2], the “hippocampal Rac1 activity (Rac1-GTP/total Rac1)” value is “inhibited Rac1 activity”.
